This is an account of results in ChEMBL document CHEMBL3808371, “Design, synthesis and biological evaluation of diaziridinyl quinone isoxazole hybrids” (Eur J Med Chem, 2016).

≈ marks a conversion by molar mass, not a printed value. Calls of active or inactive are those of the source. The rule behind the calls is not given here.

Assay [1] is described as follows: Cytotoxicity against human PC3 cells after 72 hrs by XTT assay. Type of assay: functional, cell-based. The note with it: PC-3, 72 h. (In general: Tetrazolium dyes change colour on reduction, which living cells bring about.)
The subject of assay [2] is A549. Kind of assay: Cytotoxicity against human A549 cells after 72 hrs by XTT assay. Conditions: A549, 72 h. Type of assay: functional, cell-based.
The test system of assay [3] is Bacillus subtilis. Kind of assay: Antimicrobial activity against Bacillus subtilis MTCC 121 after 24 hrs by well diffusion method. It counts as functional. The note with it: MTCC 121, 24 h. For orientation: A growth-free zone around the sample is the usual read-out of agar diffusion tests.
For assay [4], the system named is Micrococcus luteus. The experiment in a line: Antimicrobial activity against Micrococcus luteus MTCC 2470 after 24 hrs by well diffusion method. It counts as functional. The note with it: MTCC 2470, 24 h.
Assay [5] has as its system Staphylococcus aureus. The experiment in a line: Bactericidal activity against Staphylococcus aureus MLS16 MTCC 2940 after 24 hrs by serial dilution method. It counts as functional. Conditions: MLS16 MTCC 2940, 24 h.
The subject of assay [6] is Micrococcus luteus. Kind of assay: Bactericidal activity against Micrococcus luteus MTCC 2470 after 24 hrs by serial dilution method. Type of assay: functional. Conditions: MTCC 2470, 24 h.
The subject of assay [7] is Staphylococcus aureus. The experiment in a line: Antimicrobial activity against Staphylococcus aureus MTCC 96 after 24 hrs by well diffusion method. It counts as functional. The note with it: MTCC 96, 24 h.
The test system of assay [8] is Candida albicans. Kind of assay: Antimicrobial activity against Candida albicans MTCC 3017 after 24 hrs by well diffusion method. It counts as functional.
The subject of assay [9] is Staphylococcus aureus. The experiment in a line: Bactericidal activity against Staphylococcus aureus MTCC 96 after 24 hrs by serial dilution method. It counts as functional. The note with it: MTCC 96, 24 h.
Assay [10] has as its system Raoultella planticola. The experiment in a line: Antimicrobial activity against Klebsiella planticola MTCC 530 after 24 hrs by well diffusion method. Type of assay: functional. Conditions: MTCC 530, 24 h.
Assay [11] deals with Escherichia coli. Kind of assay: Antimicrobial activity against Escherichia coli MTCC 739 after 24 hrs by well diffusion method. Type of assay: functional. Conditions: MTCC 739, 24 h.
The test system of assay [12] is Raoultella planticola. Kind of assay: Bactericidal activity against Klebsiella planticola MTCC 530 after 24 hrs by serial dilution method. Type of assay: functional. The note with it: MTCC 530, 24 h.
In assay [13] the test system is Bacillus subtilis. The experiment in a line: Bactericidal activity against Bacillus subtilis MTCC 121 after 24 hrs by serial dilution method. It counts as functional. Conditions: MTCC 121, 24 h.
Assay [14] relates to Staphylococcus aureus. Kind of assay: Antimicrobial activity against Staphylococcus aureus MLS16 MTCC 2940 after 24 hrs by well diffusion method. It counts as functional. The note with it: MLS16 MTCC 2940, 24 h.
Assay [15] has as its system Pseudomonas aeruginosa. Kind of assay: Antimicrobial activity against Pseudomonas aeruginosa MTCC 2453 after 24 hrs by well diffusion method. It counts as functional. Conditions: MTCC 2453, 24 h.
The test system of assay [16] is Raoultella planticola. Kind of assay: Antibiofilm activity against Klebsiella planticola MTCC 530 after 24 hrs by crystal violet staining based assay. It counts as functional, organism-based. Conditions: MTCC 530, 24 h.
Assay [17] has as its system Staphylococcus aureus. Kind of assay: Antibiofilm activity against Staphylococcus aureus MTCC 96 after 24 hrs by crystal violet staining based assay. Type of assay: functional, organism-based. Conditions: MTCC 96, 24 h.
In assay [18] the test system is Micrococcus luteus. The experiment in a line: Antibiofilm activity against Micrococcus luteus MTCC 2470 after 24 hrs by crystal violet staining based assay. Conditions: MTCC 2470, 24 h. Type of assay: functional, organism-based.
Assay [19] concerns Staphylococcus aureus. The experiment in a line: Antibiofilm activity against Staphylococcus aureus MLS16 MTCC 2940 after 24 hrs by crystal violet staining based assay. Conditions: MLS16 MTCC 2940, 24 h. Type of assay: functional, organism-based.
Assay [20] relates to Bacillus subtilis. Kind of assay: Antibiofilm activity against Bacillus subtilis MTCC 121 after 24 hrs by crystal violet staining based assay. Type of assay: functional, organism-based. The note with it: MTCC 121, 24 h.

`COc1ccc(OC)c(-c2cc(-c3ccc(C(=O)NC4CC4)s3)on2)c1`: the concentration for half-maximal inhibition (IC50) in assay [1] was 7.8 µM; in [2] it was more than 30 µM.
The like results for `COc1ccc(OC)c(-c2cc(-c3ccc(C(=O)N4CCOCC4)s3)on2)c1` were, in that order, more than 30 µM and more than 30 µM.
The matching figures for `COc1ccc(CN(C)C(=O)c2ccc(-c3cc(C4=CC(=O)C=CC4=O)no3)s2)cc1`: less than 30 µM and more than 30 µM.
`O=C1C=CC(=O)C(c2cc(-c3ccc(C(=O)NCC4CC4)s3)on2)=C1`: the half-maximal inhibitory concentration (IC50) in [1] and in [2] was more than 30 µM in each case.
As to `O=C1C=C(N2CC2)C(=O)C(c2cc(-c3ccc(C(=O)N4CCCC4)s3)on2)=C1N1CC1`, the MIC in assay [3] was 7.8 µg/mL (≈ 17.9 µM); in [4], 31.2 µg/mL (≈ 71.5 µM); in assay [7], 15.6 µg/mL (≈ 35.7 µM); in [8] (MTCC 3017, 24 h) it was 31.2 µg/mL (≈ 71.5 µM); in assay [10] it was 15.6 µg/mL (≈ 35.7 µM); in assay [11], more than 125 µg/mL. Further, the MIC in assay [14] was 15.6 µg/mL (≈ 35.7 µM); in assay [15], more than 125 µg/mL. For the same compound, the IC50 was 1 µM in [1] and 1.7 µM in assay [2]. The MBC in assay [5] was found to be 31.2 µg/mL (≈ 71.5 µM); in [6] it was 62.5 µg/mL (≈ 143 µM); in assay [9], 31.2 µg/mL (≈ 71.5 µM); in assay [12] it was 31.2 µg/mL (≈ 71.5 µM); in [13] it was 15.6 µg/mL (≈ 35.7 µM).
For `CCCN(C)C(=O)c1ccc(-c2cc(C3=CC(=O)C=CC3=O)no2)s1`, the IC50 in [1] is less than 30 µM; in [2] it was more than 30 µM.
`O=C(O)c1cn(C2CC2)c2cc(N3CCNCC3)c(F)cc2c1=O` [CIPROFLOXACIN]: the minimum inhibitory concentration (MIC) in assay [3], in assay [4], in assay [7], in assay [10], in assay [11] and in assay [14] was 0.9 µg/mL (≈ 2.72 µM) in each case. Also, the minimal inhibitory concentration (MIC) in assay [15] was 0.9 µg/mL (≈ 2.72 µM). In addition, the values for the IC50 in assay [16], in [17] and in assay [18] were 0.6 µM, 0.7 µM and 0.8 µM, respectively. Moreover, the MBC in assay [5] was 1.9 µg/mL (≈ 5.73 µM); in assay [6] it was 0.9 µg/mL (≈ 2.72 µM); in [9], 0.9 µg/mL (≈ 2.72 µM); in [12], 1.9 µg/mL (≈ 5.73 µM); in assay [13] it was 1.9 µg/mL (≈ 5.73 µM). Besides, the MIC entry in assay [8] is “inactive”.
Turning to `CN(C)C(=O)c1ccc(-c2cc(C3=C(N4CC4)C(=O)C=C(N4CC4)C3=O)no2)s1`, the minimal inhibitory concentration (MIC) is 3.9 µg/mL (≈ 9.5 µM) in [3]; 62.5 µg/mL (≈ 152 µM) in assay [4]; 15.6 µg/mL (≈ 38 µM) in [7]; 15.6 µg/mL (≈ 38 µM) in assay [8] (MTCC 3017, 24 h); 7.8 µg/mL (≈ 19 µM) in assay [10]; more than 125 µg/mL in assay [11]. Besides, the MIC in [14] was 15.6 µg/mL (≈ 38 µM); in assay [15], more than 125 µg/mL. Besides, the IC50 in assay [16] is 6.1 µM; in assay [1], more than 30 µM; in [17], 9.8 µM; in assay [19], 10.1 µM; in assay [2], 1.5 µM; in assay [20], 2.2 µM. In assay [18], this compound gave a concentration for half-maximal inhibition (IC50) of 38.9 µM. The minimal bactericidal concentration (MBC) in assay [5] turned out to be 31.2 µg/mL (≈ 76 µM); in assay [6], 125 µg/mL (≈ 305 µM); in [9], 31.2 µg/mL (≈ 76 µM); in assay [12], 31.2 µg/mL (≈ 76 µM); in assay [13], 7.8 µg/mL (≈ 19 µM).
Consider `COc1ccc(OC)c(-c2cc(-c3ccc(C(=O)N(C)Cc4ccccc4)s3)on2)c1`, for which the half-maximal inhibitory concentration (IC50) in [1] and in assay [2] was more than 30 µM throughout.
For `O=C1C=CC(=O)C(c2cc(-c3ccc(C(=O)N4CCCCC4)s3)on2)=C1`, the IC50 in assay [1] and in assay [2] was more than 30 µM in each case.
On to `COc1ccc(OC)c(-c2cc(-c3ccc(C(=O)N4CCCC4)s3)on2)c1`, for which the IC50 in assay [1] and in assay [2] was more than 30 µM throughout.
Take `COc1ccc(CN(C)C(=O)c2ccc(-c3cc(-c4cc(OC)ccc4OC)no3)s2)cc1`: the 50% inhibitory concentration (IC50) in assay [1] and in assay [2] was more than 30 µM in each case.
In the case of `CN(Cc1ccccc1)C(=O)c1ccc(-c2cc(C3=CC(=O)C=CC3=O)no2)s1`, the results for the half-inhibitory concentration (IC50) in [1] and in [2] were 11 µM and more than 30 µM, respectively.
In the case of `CN(C)C(=O)c1ccc(-c2cc(C3=CC(=O)C=CC3=O)no2)s1`, the values for the IC50 in [1] and in [2] were 7.2 µM and more than 30 µM, respectively.
For the compound `O=C1C=C(N2CC2)C(=O)C(c2cc(-c3ccc(C(=O)NCC4CC4)s3)on2)=C1N1CC1`, the minimal inhibitory concentration (MIC) in assay [3] is 15.6 µg/mL (≈ 35.7 µM); in assay [4], more than 125 µg/mL; in assay [7] it was more than 125 µg/mL; in assay [8] (MTCC 3017, 24 h), 15.6 µg/mL (≈ 35.7 µM); in [10], more than 125 µg/mL; in assay [11], more than 125 µg/mL. Besides, the minimal inhibitory concentration (MIC) in [14] and in [15] was more than 125 µg/mL in each case. The half-inhibitory concentration (IC50) stood at 3.5 µM in [1], 2.1 µM in assay [2] and 9.8 µM in [20]. Besides, the MBC is more than 125 µg/mL in [5]; more than 125 µg/mL in assay [6]; more than 125 µg/mL in [9]; more than 125 µg/mL in assay [12]; 31.2 µg/mL (≈ 71.5 µM) in [13].

What is called IC50 is the concentration needed to halve the response being measured. A word on the MIC: it is the lowest concentration found to suppress growth. By MBC is commonly meant the lowest tested concentration that kills the bacteria rather than only halting them.
